# Laboratory results published in PMC12833730, “Discovery of a First‐in‐Class Covalent Allosteric SHP1 Inhibitor with Immunotherapeutic Activity” (Angewandte Chemie (International Ed. in English), 2025).
# “Also recorded” adds a separate entry of the source.
# Columns and labels:
# MC38 colorectal tumors = experiment: MC38 syngeneic tumor model; type: in vivo, C57BL/6 mice
# Protocol: Given its favorable PK profiles, we evaluated the antitumor activity of M029 in C57BL/6 mice bearing MC38 colorectal tumors. Mice bearing established tumors were given once daily with either saline, 25 mg/kg (IP), 25 mg/kg (PO), or 100 mg/kg (PO) M029.
# Figure 5 M029 inhibits syngeneic MC38 tumor growth by promoting infiltration and activation of both T cells and NK cells in the tumor microenvironment. […] This T cell activation was further supported by i) the increased effector CD8^+ population in the tumor microenvironment. […] Statistical analyses were performed with Graphpad Prism software 10.4.2 through the student t test or the one‐way ANOVA test using Turkey post‐hoc comparison. *p < 0.05, **p < 0.01, ***p < 0.001, and ****p < 0.0001 were considered significant. Figures are plotted as average ± standard error of the mean (SEM).
# All the in vivo studies were performed under an animal protocol (1511001324) approved by the Institutional Animal Care & Use Committee of Purdue University, in accordance with the recommendations in the Guide for the Care and Use of Laboratory Animals of the National Institutes of Health. For PK study, C57BL6 female mice (25-30g body weight) were injected intraperitoneally, orally, or intravenously with 25 mg/kg M029 dissolved in 0.4 ml saline. Blood samples were collected through the tail vein at the indicated time points after injection. Isoflurane was used as an anesthetic. All blood samples were centrifuged at 1,500 g for 5 minutes, and plasma was separated and stored at –80°C until analysis by a validated method based on reversed-phase liquid chromatography coupled to mass-spectrometric detection (LC/MS) using a previously published procedure.^169 For the MC38 syngeneic tumor study, 12-week-old C57BL6 female mice were injected subcutaneously with […] MC38 cells in the right and left flanks for tumor growth. When tumors reached an average volume of 100 mm^3 mice were tumor size-matched and randomly assigned to different experimental groups for experiments. Four mice with eight tumors were used in each treatment group. Mice were injected orally with saline or 25 or 100 mg/kg M029 daily. Tumor sizes and animal weights were measured twice per week. Tumor volume (mm^3) = (length X width^2)/2. At the end of the experiments, mice were euthanized, and tumors were collected for analysis. Among eight tumors collected from each group, four homogenous samples and […] were prepared for Western blots and histology analysis.
# Jurkat T cells = experiment: CCK8 cytotoxicity; type: cell-based; details: up to 50 µM, 24 hours
# Protocol: (§1) Figure S3. Cancerous cells (MC38, EO771, and B16-F10), non-cancerous cells (HEK293), and immune cells (Jurkat and Raw264.7) were treated with M029 at different doses for 24 hours, and the cell viability was determined by the CCK8 experiments using DMSO-treated cells as a control. […] Results were analyzed using GraphPad Prism 10.4.2. The figure is plotted as average ± standard error of the mean (SEM).
# (§2) Cytotoxicity: HEK293, MC38, EO771, RAW264.7 cells in DMEM media [supplemented with 10% (v/v) fetal bovine serum and penicillin (100 units/ml)/streptomycin (100 μg/ml)] and Jurkat T cells in RPMI 1640 media [supplemented with 10% (v/v) fetal bovine serum and penicillin (50 units/ml)/streptomycin (50 μg/ml)] were dispensed in clear flat-bottom 96-well plates at the density of 5,000 cells per well and culture for 16 hours under 37 °C with 5% CO2. M029 of different concentrations or DMSO was added to each well, followed by additional incubation for 24 hours. All wells were then treated with 5 µL of CCK8 reagent (Abcam, #ab228554) followed by 4 hours of incubation. OD460 of the reaction mixture was detected using a Spectra MAX340 microplate spectrophotometer (Molecular Devices) and was used to determine the percent growth inhibition of M029 on each cell line. Data were fitted using Prism GraphPad 10.1.1.
# Raw264.7 cells = experiment: CCK8 cytotoxicity; type: cell-based; details: up to 50 µM, 24 hours
# Protocol: as §1, §2
# HEK293 = experiment: CCK8 cytotoxicity; type: cell-based; details: up to 50 µM, 24 hours
# Protocol: as §1, §2
# B16-F10 = experiment: CCK8 cytotoxicity; type: cell-based; details: up to 50 µM, 24 hours
# Protocol: as §1, §2
# MC38 = experiment: CCK8 cytotoxicity; type: cell-based; details: up to 50 µM, 24 hours
# Protocol: as §1, §2
# EO771 = experiment: CCK8 cytotoxicity; type: cell-based; details: up to 50 µM, 24 hours
# Protocol: as §1, §2
# PEZ = PEZ (Homo sapiens, UniProt Q15678); experiment: PTP panel IC50, 60-min preincubation; type: biochemical
# From the text: (§3) Building on the results from the SAR “by‐catalog” study, the following medicinal chemistry effort was prioritized on a systematic survey of the central phenyl scaffold, the sulfonamide linker, and the distal aryl moiety with the goal of a multiparameter optimization of potency and selectivity for SHP1 inhibition as well as drug‐like properties such as aqueous solubility and cell permeability. Additionally, given the crucial requirement for targeted covalent inhibitors to maintain tempered reactivity that enables selective target engagement and reduces cross‐reactivity to by‐standing nucleophiles in the cellular milieu,^[ [74], [75] ^] the medicinal chemistry campaign also sought to lower SHP1 covalent inhibitor reactivity with GSH and cytotoxicity. Careful assessment and evaluation of the SAR and other desirable drug‐like attributes of all synthesized molecules led to the identification of M029 (Figure 2a and Figure S2D, manuscript in preparation). […] To determine the selectivity of M029 for SHP1, we measured the IC50 value for M029‐mediated inhibition of a number of PTPs after a 60‐min preincubation. […] To assess potential direct interactions between SHP1 and M029, we utilized the thermal shift assay to measure the thermal stability of SHP1 in the presence of M029. […] To corroborate the covalent interaction between SHP1 and M029, a single SHP1‐M029 covalent adduct was observed by electrospray protein mass spectrometry when SHP1 was incubated with M029 (Figure 2e). […] This is in line with the expectation that SHP1 inactivation by M029 occurs through nucleophilic substitution of the chlorine from the chloroacetamide warhead.
# (§4) To further confirm the time-dependent inhibition and determine the IC50 of acquired hits, repurchased compounds from Enamine were serially diluted in a 96-well plate, followed by the addition of proteins at 200 nM. After 10-minute and 60-minute preincubation, 2 µL of the mixture was transferred into 100 µM 6,8-Difluoro-4-Methylumbelliferyl Phosphate (DiFMUP, Invitrogen, cat# D6567) at a final volume of 200 µL. The reaction was allowed to proceed for 5 minutes and quenched by the addition of 40 µl of a 160 µM solution of bpV(Phen) (Sigma-Aldrich, cat# SML0889). The fluorescence signal was measured using a CLARIOstar Plus Microplate Spectrophotometer (BMG Labtech) using excitation and emission wavelengths of 340 nm and 450 nm, respectively. Data were fitted using Prism GraphPad 10.1.1.
# VHR = VHR (Homo sapiens, UniProt P51452); experiment: PTP panel IC50, 60-min preincubation; type: biochemical
# From the text: as §3, §4
# Sequence of VHR (P51452 whole entry, species assumed): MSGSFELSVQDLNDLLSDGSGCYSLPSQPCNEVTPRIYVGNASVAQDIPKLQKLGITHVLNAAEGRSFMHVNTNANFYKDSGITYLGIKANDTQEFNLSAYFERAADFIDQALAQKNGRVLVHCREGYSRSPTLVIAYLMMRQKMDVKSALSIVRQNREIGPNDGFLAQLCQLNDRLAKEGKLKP
# Sequence of PEZ (Q15678 whole entry, species assumed): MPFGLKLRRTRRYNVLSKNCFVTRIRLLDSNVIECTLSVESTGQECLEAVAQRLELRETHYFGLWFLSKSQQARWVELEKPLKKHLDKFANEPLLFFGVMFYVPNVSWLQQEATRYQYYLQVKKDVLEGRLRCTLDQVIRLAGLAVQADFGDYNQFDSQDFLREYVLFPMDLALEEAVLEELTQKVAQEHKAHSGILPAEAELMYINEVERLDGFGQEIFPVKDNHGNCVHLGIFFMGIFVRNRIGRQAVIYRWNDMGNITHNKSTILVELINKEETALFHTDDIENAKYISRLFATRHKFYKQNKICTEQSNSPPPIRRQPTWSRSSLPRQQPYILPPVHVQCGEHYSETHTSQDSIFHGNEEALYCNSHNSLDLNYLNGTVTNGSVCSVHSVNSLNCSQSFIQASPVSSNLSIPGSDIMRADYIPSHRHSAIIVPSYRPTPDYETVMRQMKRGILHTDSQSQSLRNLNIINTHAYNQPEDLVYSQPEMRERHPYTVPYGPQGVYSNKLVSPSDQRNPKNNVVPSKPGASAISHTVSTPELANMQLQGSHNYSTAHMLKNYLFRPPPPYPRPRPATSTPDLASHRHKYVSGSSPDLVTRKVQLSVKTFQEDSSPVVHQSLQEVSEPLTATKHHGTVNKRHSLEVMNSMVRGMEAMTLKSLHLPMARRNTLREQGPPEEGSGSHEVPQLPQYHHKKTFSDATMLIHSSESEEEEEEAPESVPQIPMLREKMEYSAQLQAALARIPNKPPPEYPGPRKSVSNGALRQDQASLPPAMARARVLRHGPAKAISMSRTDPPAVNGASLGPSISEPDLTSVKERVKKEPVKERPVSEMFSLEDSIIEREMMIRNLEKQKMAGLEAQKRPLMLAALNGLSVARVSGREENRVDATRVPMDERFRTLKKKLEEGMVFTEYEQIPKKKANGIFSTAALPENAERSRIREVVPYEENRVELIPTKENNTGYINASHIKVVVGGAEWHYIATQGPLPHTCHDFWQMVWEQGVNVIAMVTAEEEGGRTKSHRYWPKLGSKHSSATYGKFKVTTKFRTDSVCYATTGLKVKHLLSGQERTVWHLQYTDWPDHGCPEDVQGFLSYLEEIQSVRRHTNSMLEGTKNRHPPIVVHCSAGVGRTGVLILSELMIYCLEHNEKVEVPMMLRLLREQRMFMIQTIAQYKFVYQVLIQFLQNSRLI
smiles,measurement,setting,value
"N#Cc1ccsc1NS(=O)(=O)c1ccc(NC(=O)CCl)cc1 [M029, 2-Chloro-N-(4-(N-(3-cyanothiophen-2-yl)sulfamoyl)phenyl)acetamide]",body weight,MC38 colorectal tumors; 25 or 100 mg/kg oral,no significant changes
same,tumor volume and tumor weight,MC38 colorectal tumors; 25 or 100 mg/kg oral vs vehicle,significant decreases
same,kidney and liver tissue sections,"MC38 colorectal tumors; IP dosing, Figure S5",No significant lesion or tissue changes
same,"MC38 tumor progression, 25 mg/kg IP",MC38 colorectal tumors; once daily IP injection 25 mg/kg,effectively halted tumor progression
same,"MC38 tumor progression, 25 mg/kg PO","MC38 colorectal tumors; once daily oral gavage 25 mg/kg, 25 mg/kg",effectively halted tumor progression; also recorded: significantly delayed
same,"MC38 tumor progression, 100 mg/kg PO","MC38 colorectal tumors; once daily oral gavage 100 mg/kg, 100 mg/kg",effectively halted tumor progression; also recorded: significantly delayed
same,signs of toxicity,"MC38 colorectal tumors; up to 100 mg/kg, body weight and organ histology",no obvious signs of toxicity
same,"cytotoxicity, Jurkat T cells",Jurkat T cells,No significant toxicity; also recorded: no significant cytotoxicity
same,"cytotoxicity, Raw264.7",Raw264.7 cells,No significant toxicity; also recorded: no significant cytotoxicity
same,"cytotoxicity, HEK293",HEK293,No significant toxicity; also recorded: no significant cytotoxicity
same,"cytotoxicity, B16-F10",B16-F10,No significant toxicity; also recorded: no significant cytotoxicity
same,"cytotoxicity, MC38",MC38,No significant toxicity; also recorded: no significant cytotoxicity
same,"cytotoxicity, EO771",EO771,No significant toxicity; also recorded: no significant cytotoxicity
same,IC50,PEZ,172 ± 19.3 µM
same,IC50,VHR,180 ± 46.8 µM
